Assay results published in article PMC5342726, “Identification of small molecule inhibitors of ERCC1-XPF that inhibit DNA repair and potentiate cisplatin efficacy in cancer cells” (Oncotarget, 2016).
Where two headings read alike, the source gives them in different places.

What was measured:
ERCC1-XPF = target: T1, ERCC1-XPF (Homo sapiens, UniProt P07992+Q92889); test: HTS fluorescence assay of ERCC1-XPF endonuclease activity; format: biochemical
T1 construct: made in house; host or cells: Sf9 insect cells, baculovirus (obtained from Aziz Sancar)
T1 sequence (Q92889 1-916): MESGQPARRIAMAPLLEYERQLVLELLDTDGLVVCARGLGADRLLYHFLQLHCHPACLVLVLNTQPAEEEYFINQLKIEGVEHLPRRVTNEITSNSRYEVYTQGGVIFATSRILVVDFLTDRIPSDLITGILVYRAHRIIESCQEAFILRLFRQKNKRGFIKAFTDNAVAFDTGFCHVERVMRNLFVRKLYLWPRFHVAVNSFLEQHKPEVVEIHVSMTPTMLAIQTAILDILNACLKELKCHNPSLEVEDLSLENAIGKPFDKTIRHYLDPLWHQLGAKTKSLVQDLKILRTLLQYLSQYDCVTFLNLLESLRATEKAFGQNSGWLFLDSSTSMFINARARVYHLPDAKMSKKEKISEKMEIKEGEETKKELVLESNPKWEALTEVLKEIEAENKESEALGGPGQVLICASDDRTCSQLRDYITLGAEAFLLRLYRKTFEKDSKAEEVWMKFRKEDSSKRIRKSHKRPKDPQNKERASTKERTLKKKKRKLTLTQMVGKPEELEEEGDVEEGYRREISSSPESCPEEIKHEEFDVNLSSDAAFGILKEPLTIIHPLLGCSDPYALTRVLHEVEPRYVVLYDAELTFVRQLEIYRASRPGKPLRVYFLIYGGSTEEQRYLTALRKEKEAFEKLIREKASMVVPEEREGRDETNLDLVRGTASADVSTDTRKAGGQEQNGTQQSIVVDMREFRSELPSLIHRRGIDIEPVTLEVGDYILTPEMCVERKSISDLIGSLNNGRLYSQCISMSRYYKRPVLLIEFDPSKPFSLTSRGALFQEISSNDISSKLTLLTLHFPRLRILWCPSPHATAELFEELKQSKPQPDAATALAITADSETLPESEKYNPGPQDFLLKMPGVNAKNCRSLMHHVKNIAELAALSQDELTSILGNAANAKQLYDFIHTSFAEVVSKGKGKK
T1 sequence (P07992 1-297): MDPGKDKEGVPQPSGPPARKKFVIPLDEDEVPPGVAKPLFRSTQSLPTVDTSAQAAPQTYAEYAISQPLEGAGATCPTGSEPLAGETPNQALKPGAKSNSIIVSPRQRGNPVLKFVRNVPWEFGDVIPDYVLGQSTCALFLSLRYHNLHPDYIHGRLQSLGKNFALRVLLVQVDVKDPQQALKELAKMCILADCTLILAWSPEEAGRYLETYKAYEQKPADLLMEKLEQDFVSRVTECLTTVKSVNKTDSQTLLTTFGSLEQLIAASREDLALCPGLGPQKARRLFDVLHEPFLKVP
Excerpt: To screen for ERCC1-XPF inhibition, an existing in vitro assay was optimized to a 96-well plate format to allow for screening of compound libraries (NCI-DTP diversity set). These compounds and subsequent vialed compounds were from the Drug Synthesis and Chemistry Branch, Developmental Therapeutics Program, Division of Cancer Treatment and Diagnosis at the National Cancer Institute. We used purified ERCC1-XPF (Supplementary Figure S1) and describe the purification procedure in Supplementary Information. The initial cuvette-based assay was optimized for DNA, MgCl2 concentrations as well as the incubation time to be used in the fluorescence assay in a 96 well plate format (Supplementary Figure S2). The assay consists of a 10 nM DNA (Q+Fl substrate annealed, described below) and 7.5 nM ERCC1-XPF protein in buffer containing 50 mM Tris-HCl pH8.0, 2 mM MgCl2, 0.1 mM BSA, and 0.5 mM β-mercaptoethanol. For preliminary screening, 150 μL of DNA was added to each well and the fluorescence signal was measured at 525 nm following excitation at 485 nm. Compounds or controls were then added to individual wells for a total of 80 compounds on each plate and the fluorescent signal was re-measured. We initially ran the screen using 50 μM compound and then repeated using 10 μM compound. 16 controls were used per plate, which consisted of buffer alone, DNA alone, ERCC1-XPF alone, 10 nM fluorescein ssDNA (positive signal), and 10 nM Q-Fl DNA with 7.5 nM ERCC1-XPF (positive signal). 7.5 nM ERCC1-XPF was added to each well containing the compounds and DNA and incubated for 30 minutes at 37°C after which the fluorescent signal was measured again.
The synthetic DNA substrate mimics a native forked ssDNA-dsDNA substrate of ERCC1-XPF (Figure 1A). This forked DNA substrate has a dsDNA region (14 bases) and a region containing two ssDNA flaps (12 bases each). One 26-mer DNA oligonucleotide contains a site-specific fluorescein modification at the indicated position (Fl Oligo: 5' - GCCAGCGCTCGGAT(AminoC6dT)(FLSN) TTTTTTTTTTT). The semi-complementary strand was synthesized containing a DABCYL quencher (Q) molecule at the depicted position (Q Oligo: 5' - TTTTTTTTTTT (AminoC6dT)(Dabcyl) ATCCGAGCGCTGGC; Figure 1A). The fluorescein (*) molecule has an excitation peak centered at 485 nm and an emission peak centered at 525 nm. The quencher (Q) molecule is able to quench the fluorescence signal of the fluorescein when it is in close proximity. The design of the semi-duplex DNA substrate is such that the fluorescein and DABCYL quencher are directly opposite one another at the double-stranded and single-stranded DNA junction (Figure 1A). […] Upon cleavage by ERCC1-XPF, (~4-5 bases from the dsDNA-ssDNA) the fluorescein label on the cleaved DNA is released into solution and results in a significant increase in fluorescence as the quencher is no longer in close proximity. The DNA substrate is also incorporated with a restriction enzyme site (HhaI) within the duplex DNA that results in a cleavage pattern similar to ERCC1-XPF. This serves as a positive control and allows assessment of ERCC1-XPF cleavage product. This DNA substrate is used in the solution based fluorescence screening assay to screen for inhibitors of ERCC1-XPF endonuclease activity. In the 96 well platform, the Z factor was calculated to be ~0.87 indicating a highly robust assay and highly suitable for a HTS. A Molecular Devices Spectramax M5 plate reader was used for fluorescence detection. The DNA substrate was the same for gel-based assays besides the fluorescent/quencher modifications and 5'-labeling using γ-ATP^32. For the secondary screen, the reaction was setup in a tube with 10 nM DNA, 7.5 nM XPF-ERCC1, 20 U/ml of HhaI, or 7.5 nM XPG (Supplementary Figure S3A) in nuclease reaction buffer with compound titration and incubated at 37°C for 30 minutes. The reaction was stopped by chelating the metal in the buffer and read in the Spectramax M5 plate reader.

H460 xenografts = details: for tumor growth, combination with cisplatin: 16168 20 mg/kg i.p. daily + cisplatin 3 mg/kg i.p. twice a week
HhaI = test: Gel-based nuclease assay, HhaI; format: biochemical; details: compound titration
[1] = IC50s calculated by CompuSyn, SD from 3 plots, read-out: ERCC1-XPF IC50

SMILES	IC50 (ERCC1-XPF; [1]) [nM]	tumor growth, combination with cisplatin (H460 xenografts)	tumor growth, combination with cisplatin (H460 xenografts; listed as Hit 2)	tumor growth, single agent (H460 xenografts; 16168 20 mg/kg i.p. daily or cisplatin 3 mg/kg i.p. twice a week, 10 days)	inhibition of HhaI nuclease activity, gel-based assay (HhaI)	IC50 (ERCC1-XPF; read-out: 50% inhibition of ERCC1-XPF) [nM]
Cc1ccc(S(=O)(=O)Oc2cc(S(=O)(=O)O)cc3cc(S(=O)(=O)O)cc(N)c23)cc1 [NSC16168]	420 ± 112	inhibited H460 tumor growth	significant effect on tumor growth compared with cisplatin alone	tumor growth was minimally affected	does not inhibit the nuclease activity	
Oc1cc(O)c2c(c1)OC(c1ccc(O)c(O)c1)C(O)C2c1c(O)cc(O)c2c1OC(c1ccc(O)c(O)c1)C(O)C2 (centres unmarked) [NSC143099]	22 ± 3				does not inhibit the nuclease activity	~22
